Source: patent US9408842B2, “Substituted pyrano and furanoquinolines, their preparation and use as medicaments” (LABORATORIOS DEL DR. ESTEVE S.A., priority 2012, dated 2016)
Where a name gives a salt, the structure may show the parent alone.

Molecular target: T1, σ1-receptor (Cavia porcellus, UniProt Q60492)
T1 construct: Guinea pig brains were homogenized in 10 vols; (w/v) of Tris-HCl 50 mM 0.32 M sucrose, pH 7.4; from tissue; host or cells: guinea pig brain membranes
Assay: binding assay for the σ1-receptor, [3H]-(+)-pentazocine, brain membranes
Details: guinea pig brain membranes; radioligand [3H]-(+)-pentazocine 5.0 nM; 150 min at 37° C.; nonspecific binding with 1 μM haloperidol
Method: Guinea pig brains were homogenized in 10 vols. (w/v) of Tris-HCl 50 mM 0.32 M sucrose, pH 7.4, with a Kinematica Polytron PT 3000 at 15000 r.p.m. for 30 s. The homogenate was centrifuged at 1000 g for 10 min at 4° C. and the supernatants collected and centrifuged again at 48000 g for 15 min at 4° C. The pellet was resuspended in 10 volumes of Tris-HCl buffer (50 mM, pH 7.4), incubated at 37° C. for 30 min, and centrifuged at 48000 g for 20 min at 4° C. Following this, the pellet was re-suspended in fresh Tris-HCl buffer (50 mM, pH 7.4) and stored on ice until use.
The radioligand used was [^3H]-(+)-pentazocine at 5.0 nM and the final volume was 200 μl. The incubation was initiated with the addition of 100 μl of membrane at a final tissue concentration of approximately 5 mg tissue net weight/mL and the incubation time was 150 m. at 37° C. After incubation, the membranes were collected onto pretreated glass fiber filterplate (MultiScreen-FC, Millipore), with polyethylenimine 0.1%. The filters were washed two times with 200 μl of washing buffer (50 mM Tris Cl, pH=7.4) and then 25 μl of Ecoscint H liquid scintillation cocktail were added. […] Nonspecific binding was determined with 1 μM haloperidol.

T1 sequence (Q60492 whole entry): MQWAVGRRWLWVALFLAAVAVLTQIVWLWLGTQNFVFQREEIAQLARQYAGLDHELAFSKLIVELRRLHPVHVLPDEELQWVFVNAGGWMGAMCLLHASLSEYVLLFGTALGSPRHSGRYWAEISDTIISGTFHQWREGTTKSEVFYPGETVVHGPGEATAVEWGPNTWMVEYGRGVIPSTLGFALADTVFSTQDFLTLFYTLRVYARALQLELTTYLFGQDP

| Ki [nM] | SMILES |
| --- | --- |
| 317 | CCN1CCC([C@H]2Nc3ccc(OCCC(C)C)cc3[C@H]3OCCC[C@H]32)CC1 (racemic) [Example 110, (4aSR*,5RS*,10bSR*)-5-(1-ethylpiperidin-4-yl)-9-(isopentyloxy)-3,4,4a,5,6,10b-hexahydro-2H-pyrano[3,2-c]quinoline hydrochloride] |
| 134 | NCCCOc1ccc2c(c1)[C@H]1OCCC[C@H]1[C@@H](C1CCCCC1)N2 (racemic) [Example 112, 3-((4aSR*,5RS*,10bSR*)-5-cyclohexyl-3,4,4a,5,6,10b-hexahydro-2H-pyrano[3,2-c]quinolin-9-yloxy)propan-1-amine hydrochloride] |
| 30 | CC(C)CCOc1ccc2c(c1)[C@H]1OCCC[C@H]1[C@@H](C1CCOCC1)N2 [Example 114, (4aS,5R,10bS)-9-(isopentyloxy)-5-(tetrahydro-2H-pyran-4-yl)-3,4,4a,5,6,10b-hexahydro-2H-pyrano[3,2-c]quinoline] |
| 27.2 | COc1ccc2c(c1)[C@H]1OCCC[C@H]1[C@@H](C1CCN(Cc3ccc(Cl)cc3)CC1)N2 (racemic) [Example 109, (4aSR*,5RS*,10bSR*)-5-(1-(4-chlorobenzyl)piperidin-4-yl)-9-methoxy-3,4,4a,5,6,10b-hexahydro-2H-pyrano[3,2-c]quinoline hydrochloride] |
| 84 | CC(C)CCOc1ccc2c(c1)[C@H]1OCCC[C@H]1[C@@H](C1CCOCC1)N2 (racemic) [Example 101, (4aSR*,5RS*,10bSR*)-9-(isopentyloxy)-5-(tetrahydro-2H-pyran-4-yl)-3,4,4a,5,6,10b-hexahydro-2H-pyrano[3,2-c]quinoline hydrochloride] |
| 42.6 | CCCCCc1ccc2c(c1)[C@H]1OCCC[C@H]1[C@@H](C1CCCCC1)N2 (racemic) [Example 60, (4aSR*,5RS*,10bSR*)-5-cyclohexyl-9-pentyl-3,4,4a,5,6,10b-hexhaydro-2H-pyrano[3,2-c]quinoline hydrochloride] |
| 242 | NCCCCOc1ccc2c(c1)[C@H]1OCCC[C@H]1[C@@H](C1CCCCC1)N2 (racemic) [Example 111, 4-((4aSR*,5RS*,10bSR*)-5-cyclohexyl-3,4,4a,5,6,10b-hexahydro-2H-pyrano[3,2-c]quinolin-9-yloxy)butan-1-amine hydrochloride] |
| 51.6 | CC(C)CCOc1ccc2c(c1)[C@H]1OCCC[C@H]1[C@@H](C1CCCCC1)N2 (racemic) [Example 27, (4aSR*,5RS*,10bSR*)-5-cyclohexyl-9-(isopentyloxy)-3,4,4a,5,6,10b-hexahydro-2H-pyrano[3,2-c]quinoline hydrochloride] |
| 124 | CC(C)CCOc1ccc2c(c1)[C@H]1OCCC[C@H]1[C@@H](C1CCCC1)N2 (racemic) [Example 105, (4aSR*,5RS*,10bSR*)-5-cyclopentyl-9-(isopentyloxy)-3,4,4a,5,6,10b-hexahydro-2H-pyrano[3,2-c]quinoline hydrochloride] |
| 337 | c1cc2c(cc1N1CCOCC1)[C@H]1OCC[C@H]1[C@@H](C1CCCCC1)N2 (racemic) [Example 103, (3aSR*,4RS*,9bSR*)-4-cyclohexyl-8-morpholino-2,3,3a,4,5,9b-hexahydrofuro[3,2-c]quinoline hydrochloride] |
| 131 | c1cc2c(cc1OCCN1CCOCC1)[C@H]1OCC[C@H]1[C@@H](C1CCCCC1)N2 (racemic) [Example 41, (3aSR*,4RS*,9bSR*)-4-cyclohexyl-8-(2-morpholinoethoxy)-2,3,3a,4,5,9b-hexahydrofuro[3,2-c]quinoline hydrochloride] |
| 89.1 | CCCCCc1ccc2c(c1)[C@H]1OCC[C@H]1[C@@H](C1CCSCC1)N2 (racemic) [Example 95, (3aSR*,4RS*,9bSR*)-8-pentyl-4-tetrahydro-2H-thiopyran-4-yl)-2,3,3a,4,5,9b-hexahydrofuro[3,2-c]quinoline hydrochloride] |
| 349 | c1ccc(Oc2ccc3c(c2)[C@H]2OCCC[C@H]2[C@@H](C2CCSCC2)N3)cc1 (racemic) [Example 71, (4aSR*,5RS*,10bSR*)-9-phenoxy-5-(tetrahydro-2H-thiopyran-4-yl)-3,4,4a,5,6,10b-hexahydro-2H-pyrano[3,2-c]quinoline hydrochloride] |
| 244 | CCCCCc1ccc2c(c1)[C@H]1OCC[C@H]1[C@@H](C1CCCCC1)N2 (racemic) [Example 84, (3aSR*,4RS*,9bSR*)-4-cyclohexyl-8-pentyl-2,3,3a,4,5,9b-hexahydrofuro[3,2-c]quinoline hydrochloride] |
| 536 | CC(C)CCOc1ccc2c(c1)[C@H]1OCCC[C@H]1[C@@H](C1CCNCC1)N2 (racemic) [Example 100, (4aSR*,5RS*,10bSR*)-9-(isopentyloxy)-5-(piperidin-4-yl)-3,4,4a,5,6,10b-hexahydro-2H-pyrano[3,2-c]quinoline hydrochloride] |
| 194 | Clc1ccc(Oc2ccc3c(c2)[C@H]2OCCC[C@H]2[C@@H](C2CCCCC2)N3)cc1 (racemic) [Example 55, (4aSR*,5RS*,10bSR*)-9-(4-chlorophenoxy)-5-cyclohexyl-3,4,4a,5,6,10b-hexahydro-2H-pyrano[3,2-c]quinoline hydrochloride] |

| SMILES | Ki [nM] |
| --- | --- |
| CCCCCc1ccc2c(c1)[C@H]1OCCC[C@H]1[C@@H](C1CCOCC1)N2 (racemic) [Example 63, (4aSR*,5RS*,10bSR*)-9-pentyl-5-(tetrahydro-2H-pyran-4-yl)-3,4,4a,5,6,10b-hexahydro-2H-pyrano[3,2-c]quinoline hydrochloride] | 61.9 |
| CCCCOc1ccc2c(c1)[C@H]1OCCC[C@H]1[C@@H](C1CCCCC1)N2 (racemic) [Example 16, (4aSR*,5RS*,10bSR*)-9-butoxy-5-cyclohexyl-3,4,4a,5,6,10b-hexahydro-2H-pyrano[3,2-c]quinoline hydrochloride] | 122 |
